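Dose response: 5 concentrations. Exposure: 48 h. Format: 96-well plates. Endpoint: linear interpolation; highest concentration if not reached. TGI denotes the concentration required for complete inhibition of growth.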
What was measured:
Test in all cases: NCI anticancer screen, dose series, 48 h
786-0 renal = system: 786-0 renal
ACHN renal = system: ACHN renal
HCT-116 colon = system: HCT-116 colon
HOP-92 NSCLC = system: HOP-92 NSCLC
HS 578T breast = system: HS 578T breast
HT29 colon = system: HT29 colon
KM12 colon = system: KM12 colon
MDA-MB-231 breast = system: MDA-MB-231 breast
OVCAR-4 ovarian = system: OVCAR-4 ovarian
PC-3 prostate = system: PC-3 prostate
RXF 393 renal = system: RXF 393 renal
SF-268 CNS = system: SF-268 CNS
SN12C renal = system: SN12C renal
SNB-19 CNS = system: SNB-19 CNS
SW-620 colon = system: SW-620 colon
T-47D breast = system: T-47D breast
TK-10 renal = system: TK-10 renal
U251 CNS = system: U251 CNS
SR leukemia = system: SR leukemia

CCOc1cc2c(cc1O)C(=O)C[C@@H]1[C@@H]2CC[C@]2(C)[C@@H](O)CC[C@@H]12
TGI (786-0 renal): > 53.8 µM
TGI (ACHN renal): > 100 µM
TGI (HCT-116 colon): 38 µM
TGI (HOP-92 NSCLC): > 100 µM
TGI (HS 578T breast): > 12.4 µM
TGI (HT29 colon): 29.9 µM
TGI (KM12 colon): 29.6 µM
TGI (MDA-MB-231 breast): 61.8 µM
TGI (OVCAR-4 ovarian): > 100 µM
TGI (PC-3 prostate): > 82.5 µM
TGI (RXF 393 renal): > 100 µM
TGI (SF-268 CNS): > 95.4 µM
TGI (SN12C renal): > 100 µM
TGI (SNB-19 CNS): > 55.2 µM
TGI (SW-620 colon): > 100 µM
TGI (T-47D breast): > 100 µM
TGI (TK-10 renal): > 100 µM
TGI (U251 CNS): > 51.9 µM

CCCCCCCCCCCCCCCC(=O)OC1C(O)C(O)C(O)C(O)C12CO2 (stereo not given)
TGI (786-0 renal): 41.9 µM
TGI (ACHN renal): > 100 µM
TGI (HCT-116 colon): > 100 µM
TGI (HOP-92 NSCLC): 56.1 µM
TGI (HS 578T breast): > 100 µM
TGI (HT29 colon): > 100 µM
TGI (KM12 colon): > 100 µM
TGI (MDA-MB-231 breast): > 100 µM
TGI (OVCAR-4 ovarian): > 100 µM
TGI (PC-3 prostate): 89.7 µM
TGI (RXF 393 renal): > 100 µM
TGI (SF-268 CNS): > 100 µM
TGI (SN12C renal): 34.5 µM
TGI (SNB-19 CNS): > 100 µM
TGI (SW-620 colon): 40 µM
TGI (T-47D breast): > 100 µM
TGI (TK-10 renal): > 100 µM
TGI (U251 CNS): 39.2 µM

Cc1c(C#N)c2nc3ccccc3n2c(=O)/c1=C/Nc1ccc(Cl)cc1
TGI (786-0 renal): 20.7 µM
TGI (ACHN renal): 25 µM
TGI (HCT-116 colon): > 100 µM
TGI (HOP-92 NSCLC): 67.5 µM
TGI (HS 578T breast): 54.5 µM
TGI (HT29 colon): > 100 µM
TGI (KM12 colon): > 100 µM
TGI (MDA-MB-231 breast): 77.9 µM
TGI (OVCAR-4 ovarian): > 100 µM
TGI (RXF 393 renal): 25.6 µM
TGI (SF-268 CNS): > 100 µM
TGI (SN12C renal): > 100 µM
TGI (SNB-19 CNS): 27.9 µM
TGI (SR leukemia): > 100 µM
TGI (SW-620 colon): > 100 µM
TGI (T-47D breast): > 100 µM
TGI (TK-10 renal): 35.7 µM
TGI (U251 CNS): 24.6 µM

CC(C)CC1N=C(OCc2ccccc2)OC1=O (stereo not given)
TGI (786-0 renal): > 100 µM
TGI (ACHN renal): > 100 µM
TGI (HCT-116 colon): > 100 µM
TGI (HOP-92 NSCLC): > 100 µM
TGI (HS 578T breast): > 100 µM
TGI (HT29 colon): > 100 µM
TGI (KM12 colon): > 100 µM
TGI (MDA-MB-231 breast): > 100 µM
TGI (OVCAR-4 ovarian): > 100 µM
TGI (PC-3 prostate): > 100 µM
TGI (RXF 393 renal): > 100 µM
TGI (SF-268 CNS): > 100 µM
TGI (SN12C renal): > 100 µM
TGI (SNB-19 CNS): > 100 µM
TGI (SW-620 colon): > 100 µM
TGI (T-47D breast): > 100 µM
TGI (TK-10 renal): > 100 µM
TGI (U251 CNS): > 100 µM

COC(=O)[C@H](Cc1ccccc1)NC(=O)N(CCNC(=O)OC(C)(C)C)c1ccccc1
TGI (786-0 renal): > 100 µM
TGI (ACHN renal): > 100 µM
TGI (HCT-116 colon): > 100 µM
TGI (HS 578T breast): > 100 µM
TGI (HT29 colon): > 100 µM
TGI (KM12 colon): > 100 µM
TGI (MDA-MB-231 breast): > 100 µM
TGI (OVCAR-4 ovarian): > 100 µM
TGI (PC-3 prostate): > 100 µM
TGI (RXF 393 renal): > 100 µM
TGI (SF-268 CNS): > 100 µM
TGI (SN12C renal): > 100 µM
TGI (SNB-19 CNS): > 100 µM
TGI (SR leukemia): > 100 µM
TGI (SW-620 colon): > 100 µM
TGI (T-47D breast): > 100 µM
TGI (U251 CNS): > 100 µM

CCOC(=O)CC1Nc2ccccc2C12CCc1c([nH]c3ccccc13)C2C(=O)OCC (stereo not given)
TGI (786-0 renal): > 100 µM
TGI (ACHN renal): > 100 µM
TGI (HCT-116 colon): > 100 µM
TGI (HS 578T breast): > 100 µM
TGI (HT29 colon): 40.1 µM
TGI (KM12 colon): > 100 µM
TGI (MDA-MB-231 breast): > 100 µM
TGI (OVCAR-4 ovarian): > 100 µM
TGI (PC-3 prostate): > 100 µM
TGI (RXF 393 renal): > 100 µM
TGI (SF-268 CNS): > 100 µM
TGI (SN12C renal): > 100 µM
TGI (SNB-19 CNS): > 100 µM
TGI (SR leukemia): > 100 µM
TGI (SW-620 colon): > 100 µM
TGI (T-47D breast): > 100 µM
TGI (TK-10 renal): > 100 µM
TGI (U251 CNS): > 100 µM

C/C(=N\O)c1cccc(Nc2c3ccccc3nc3occc23)c1
TGI (786-0 renal): 28.3 µM
TGI (ACHN renal): 38.6 µM
TGI (HCT-116 colon): 18.8 µM
TGI (HOP-92 NSCLC): 47.9 µM
TGI (HS 578T breast): 55.3 µM
TGI (HT29 colon): 95.7 µM
TGI (KM12 colon): > 100 µM
TGI (MDA-MB-231 breast): > 100 µM
TGI (OVCAR-4 ovarian): 9.59 µM
TGI (PC-3 prostate): > 100 µM
TGI (SF-268 CNS): 56.9 µM
TGI (SN12C renal): > 100 µM
TGI (SNB-19 CNS): > 100 µM
TGI (SR leukemia): > 100 µM
TGI (T-47D breast): 21.7 µM
TGI (TK-10 renal): 44.3 µM
TGI (U251 CNS): > 100 µM

OC(Cc1cc(CC(O)(C(F)(F)F)C(F)(F)F)nc(CC(O)(C(F)(F)F)C(F)(F)F)c1)(C(F)(F)F)C(F)(F)F
TGI (786-0 renal): 6.34 µM
TGI (ACHN renal): > 10 µM
TGI (HCT-116 colon): 2.76 µM
TGI (HOP-92 NSCLC): 3.45 µM
TGI (HS 578T breast): 4.63 µM
TGI (HT29 colon): 6.24 µM
TGI (KM12 colon): 2.42 µM
TGI (MDA-MB-231 breast): 3.68 µM
TGI (OVCAR-4 ovarian): > 10 µM
TGI (PC-3 prostate): 0.776 µM
TGI (RXF 393 renal): 4.57 µM
TGI (SF-268 CNS): 4.87 µM
TGI (SN12C renal): 7.33 µM
TGI (SNB-19 CNS): 8.79 µM
TGI (SW-620 colon): > 10 µM
TGI (T-47D breast): > 10 µM
TGI (TK-10 renal): > 10 µM
TGI (U251 CNS): 5.32 µM

C=C1CC[C@@H]2[C@](C)(COC(=O)CCC(=O)O)CCC[C@@]2(C)[C@@H]1CCC1=CC(=O)OC1
TGI (786-0 renal): > 100 µM
TGI (ACHN renal): > 100 µM
TGI (HCT-116 colon): > 100 µM
TGI (HOP-92 NSCLC): > 100 µM
TGI (HS 578T breast): > 100 µM
TGI (HT29 colon): > 100 µM
TGI (KM12 colon): > 100 µM
TGI (MDA-MB-231 breast): > 100 µM
TGI (OVCAR-4 ovarian): > 100 µM
TGI (PC-3 prostate): > 100 µM
TGI (RXF 393 renal): > 100 µM
TGI (SF-268 CNS): > 100 µM
TGI (SN12C renal): > 100 µM
TGI (SNB-19 CNS): > 100 µM
TGI (SW-620 colon): > 100 µM
TGI (T-47D breast): > 100 µM
TGI (TK-10 renal): > 100 µM
TGI (U251 CNS): > 100 µM

COc1cc(C(c2ccc3c(c2)OCO3)C2SCCCS2)cc(OC)c1OC (stereo not given)
TGI (786-0 renal): 9.68 µM
TGI (ACHN renal): > 100 µM
TGI (HCT-116 colon): 10.6 µM
TGI (HS 578T breast): 7.97 µM
TGI (HT29 colon): 3.42 µM
TGI (KM12 colon): 26 µM
TGI (MDA-MB-231 breast): 6.21 µM
TGI (OVCAR-4 ovarian): 75.8 µM
TGI (PC-3 prostate): > 100 µM
TGI (RXF 393 renal): 4.47 µM
TGI (SF-268 CNS): > 100 µM
TGI (SN12C renal): 8.99 µM
TGI (SNB-19 CNS): 5.41 µM
TGI (SR leukemia): 2.07 µM
TGI (SW-620 colon): 33 µM
TGI (T-47D breast): > 100 µM
TGI (TK-10 renal): > 100 µM
TGI (U251 CNS): 21.5 µM

CN(C)NC1=NS(=O)(=O)c2cc3c(=O)n(C)[nH]c3cc2S1
TGI (786-0 renal): > 10 µM
TGI (ACHN renal): > 10 µM
TGI (HCT-116 colon): > 10 µM
TGI (HOP-92 NSCLC): > 10 µM
TGI (HS 578T breast): > 10 µM
TGI (HT29 colon): > 10 µM
TGI (KM12 colon): > 10 µM
TGI (OVCAR-4 ovarian): > 10 µM
TGI (PC-3 prostate): > 10 µM
TGI (RXF 393 renal): > 10 µM
TGI (SF-268 CNS): > 10 µM
TGI (SN12C renal): > 10 µM
TGI (SNB-19 CNS): > 10 µM
TGI (SR leukemia): > 10 µM
TGI (SW-620 colon): > 10 µM
TGI (T-47D breast): > 10 µM
TGI (TK-10 renal): > 10 µM
TGI (U251 CNS): > 10 µM

C=C(C)COc1cc(NC(=S)OC(C)C)ccc1Cl
TGI (786-0 renal): 30.5 µM
TGI (ACHN renal): 31.1 µM
TGI (HCT-116 colon): 28.4 µM
TGI (HOP-92 NSCLC): 26.7 µM
TGI (HS 578T breast): 49.9 µM
TGI (HT29 colon): 28.4 µM
TGI (KM12 colon): 65.7 µM
TGI (MDA-MB-231 breast): 29.5 µM
TGI (OVCAR-4 ovarian): 28.3 µM
TGI (PC-3 prostate): 28.6 µM
TGI (SF-268 CNS): 40.6 µM
TGI (SN12C renal): 30.6 µM
TGI (SNB-19 CNS): 33.4 µM
TGI (SW-620 colon): 27.6 µM
TGI (T-47D breast): 26.8 µM
TGI (TK-10 renal): 29.3 µM
TGI (U251 CNS): 30.8 µM

CC1(C)[C@H]2Cc3cc4nc5ccccn5c4cc3[C@@H]1C2
TGI (786-0 renal): 32.7 µM
TGI (ACHN renal): 34.2 µM
TGI (HCT-116 colon): 33 µM
TGI (HOP-92 NSCLC): 29.3 µM
TGI (HS 578T breast): 37.7 µM
TGI (HT29 colon): 28.3 µM
TGI (KM12 colon): 36.7 µM
TGI (MDA-MB-231 breast): 27.1 µM
TGI (OVCAR-4 ovarian): 26 µM
TGI (PC-3 prostate): 41.5 µM
TGI (SF-268 CNS): 34.5 µM
TGI (SN12C renal): 35.8 µM
TGI (SNB-19 CNS): 31.8 µM
TGI (SW-620 colon): 52.5 µM
TGI (T-47D breast): 53.7 µM
TGI (TK-10 renal): 33 µM
TGI (U251 CNS): 34.2 µM

From PubChem BioAssay (NCI)
